Measured values reported in patent US11653689B2, “Probiotic Bifidobacterium breve strain and compositions comprising said strain” (Chr. Hansen A/S, priority 2018, dated 2023).

Columns and labels:
[1] = system: cyclooxygenase (COX); assay: Serum prostaglandin E2 and thromboxane B2 by LC-MS/MS in trial subjects; assay type: in vivo, human; settings: fasting serum, visit 2 to 7, 300 mg aspirin daily
Procedure: As exploratory endpoints, post-hoc intervention effects on prostaglandin E2 (PGE2) and thromboxane B2 (TBX2) in serum samples downstream of cyclooxygenase (COX) were studied.
After unblinding, a post-hoc lab analysis was performed on 2 biolipids PGE2 and TXB2 downstream from the COX enzyme in fasting serum samples obtained during visit 2 to visit 7. […] J. Chromatogr. […] Ambiotis were kept blinded for intervention during analyses and analyses were performed in single measurements.

[2] = Co-incubation of DSM 32356 with acetylsalicylic acid, metabolite analysis
Procedure: The overall aim with this experiment was to explore if Bifidobacterium breve DSM 32356 influenced the degradation of aspirin in vitro.
To cover a wide concentration range of acetylsalicylic acid the following concentrations were used: 20, 10, 5, 2.5, 1.25, 0.625, 0.3125 and 0 mM of acetylsalicylic acid.
The next day the grown culture was reinoculated in fresh MRS with 0.05% CyHCl (100 μL bacteria suspension in 10 mL MRS with 0.05% CyHCl). Six dilution rows were generated by transferring 1 mL of mixed inoculated culture to 10 mL MRS with 0.05% CyHCl. This was repeated 5 times. The bifidobacteria were cultured anaerobically overnight at 37° C. On the day of incubation with acetylsalicyl acid bacterial growth was evaluated by measuring optical density at 600 nm (OD600 nm) and cultures representing late exponential/early stationary phase were selected. […]
Nine mL of each acetylsalicylic acid solution (22.2, 11.1, 5.6, 2.8, 1.39, 0.69 and 0.35 mM) and the control condition (0 mM) were added to different sterile tubes in duplicate. […] After incubation, pH was measured in each vial and the solutions were sterile filtered and frozen at −80° C. until metabolite analysis. […]

[3] = system: Caco-2 cell layer; settings: cited from earlier work
[4] = system: upper GI bleeding; settings: in vivo; cited from earlier work

For `CC(=O)Oc1ccccc1C(=O)O` [acetylsalicylic acid (aspirin), acetylsalicylic acid], the “serum PGE2 concentrations” value [1] was “robust inhibition”, the “serum TXB2 concentrations” value [1] was “robust inhibition” and the “conversion of acetylsalicylic acid to salicylic acid” value ([2]; 24 hours, 37° C., with DSM 32356 or acid-adjusted to pH 4.5, MRS) was “most of the acetylsalicylic acid was converted to salicylic acid”. The “growth of DSM 32356” value ([2]; increasing concentrations of aspirin) was “inhibited bacterial growth”, the ZO-1 expression [3] was “decreased” and the “flux of fluorescein isothiocyanate-conjugated dextran” value [3] was “increases flux”. For the same compound, the “transepithelial electrical resistance (TEER)” value [3] was “decreased” and the “increased risk of upper GI bleeding” value [4] was 2- to 4 fold.
